Test results: patent US11634393B2, “Substituted tolyl fungicides” (FMC CORPORATION, priority 2018, dated 2023)
Values belong to the compound of their own block, whether it stands above or below them.

Assays:
[1] = system: Puccinia recondita f. sp. tritici; assay: Test B: wheat leaf rust, spray on wheat seedlings, disease control rating; assay type: in vivo; details: 100 = 100% disease control, 0 = no disease control relative to the controls; for pest or weed control at 10 ppm / Test B disease control rating: Rate 10 ppm
Source text: (§1) General protocol for preparing test suspensions for Tests A-F: the test compounds were first dissolved in acetone in an amount equal to 3% of the final volume and then suspended at the desired concentration (in ppm) in acetone and purified water (50/50 mix by volume) containing 250 ppm of the surfactant PEG400 (polyhydric alcohol esters). The resulting test suspensions were then used in Tests A-F.
The test solution was sprayed to the point of run-off on wheat seedlings. The following day the seedlings were inoculated with a spore suspension of Puccinia recondita f. sp. tritici (the causal agent of wheat leaf rust) and incubated in a saturated atmosphere at 20° C. for 24 h, and then moved to a growth chamber at 20° C. for 7 days, after which time disease ratings were made.
(§2) A rating of 100 indicates 100% disease control and a rating of 0 indicates no disease control (relative to the controls). A dash (-) indicates the compound was not tested.

Phakopsora pachyrhizi = assay: Test D: Asian soybean rust, spray on soybean seedlings, disease control rating; assay type: in vivo; details: 100 = 100% disease control, 0 = no disease control relative to the controls; for pest or weed control at 10 ppm / Test D disease control rating: Rate 10 ppm
Source text: as §1
The test solution was sprayed to the point of run-off on soybean seedlings. The following day the seedlings were inoculated with a spore suspension of Phakopsora pachyrhizi (the causal agent of Asian soybean rust) and incubated in a saturated atmosphere at 22° C. for 24 h and then moved to a growth chamber at 22° C. for 8 days, after which time visual disease ratings were made.
as §2

Compound: COC(=O)NCc1cc(-c2ccn(-c3c(F)cccc3F)n2)ccc1C [Compound 4, methyl N-[[5-[1-(2,6-difluorophenyl)-1H-pyrazol-3-yl]-2-methylphenyl]-methyl]carbamate]
pest or weed control at 10 ppm ([1]; Puccinia recondita, 192 h): 90% | melting point: 142 to 143 °C | pest or weed control at 10 ppm (Phakopsora pachyrhizi; Phakopsora pachyrhizi, 216 h): 100%

Compound: CCOc1cc(F)c(-n2ccc(-c3ccc(C)c(CNC(=O)OC)c3)n2)c(F)c1 [Compound 11, methyl N-[[5-[1-(4-ethoxy-2,6-difluorophenyl)-1H-pyrazol-3-yl]-2-methylphenyl]methyl]carbamate]
pest or weed control at 10 ppm ([1]; Puccinia recondita, 192 h): 100% | melting point: 118 to 119 °C | pest or weed control at 10 ppm (Phakopsora pachyrhizi; Phakopsora pachyrhizi, 216 h): 100%

Compound: COC(=O)NCc1cc(-c2ccn(-c3c(F)cc(OC4CCC4)cc3F)n2)ccc1C [Compound 13, methyl N-[[5-[1-[4-(cyclobutyloxy)-2,6-difluorophenyl]-1H-pyrazol-3-yl]-2-methylphenyl]methyl]carbamate]
pest or weed control at 10 ppm ([1]; Puccinia recondita, 192 h): 100% | melting point: 126 to 128 °C | pest or weed control at 10 ppm (Phakopsora pachyrhizi; Phakopsora pachyrhizi, 216 h): 100%

Compound: COC(=O)NCc1cc(-c2ccn(-c3c(F)cc(OC4CC4)cc3F)n2)ccc1C [Compound 66, methyl N-[[5-[1-[4-(cyclopropyloxy)-2,6-difluorophenyl]-1H-pyrazol-3-yl]-2-methylphenyl]methyl]carbamate]
pest or weed control at 10 ppm ([1]; Puccinia recondita, 192 h): 100% | melting point: 124 to 128 °C | pest or weed control at 10 ppm (Phakopsora pachyrhizi; Phakopsora pachyrhizi, 216 h): 100%

Compound: COC(=O)NCc1cc(-c2cc(C)n(-c3c(F)cccc3F)n2)ccc1C [Compound 100]
pest or weed control at 10 ppm ([1]; Puccinia recondita, 192 h): 0% | melting point: 125 to 129 °C | pest or weed control at 10 ppm (Phakopsora pachyrhizi; Phakopsora pachyrhizi, 216 h): 0%

Compound: COC(=O)NCc1cc(-c2cc(C)n(-c3c(Cl)cccc3Cl)n2)ccc1C [Compound 101]
pest or weed control at 10 ppm ([1]; Puccinia recondita, 192 h): 0% | melting point: 146 to 150 °C | pest or weed control at 10 ppm (Phakopsora pachyrhizi; Phakopsora pachyrhizi, 216 h): 0%

Compound: COC(=O)NCc1cc(-c2cc(C)n(-c3c(F)cc(OC)cc3F)n2)ccc1C [Compound 102]
pest or weed control at 10 ppm ([1]; Puccinia recondita, 192 h): 0% | melting point: 128 to 132 °C | pest or weed control at 10 ppm (Phakopsora pachyrhizi; Phakopsora pachyrhizi, 216 h): 0%

Compound: COC(=O)NCc1cc(-c2ncn(-c3c(F)cc(C(F)(F)F)cc3F)n2)ccc1C [Compound 103]
pest or weed control at 10 ppm ([1]; Puccinia recondita, 192 h): 100% | melting point: 168 to 172 °C | pest or weed control at 10 ppm (Phakopsora pachyrhizi; Phakopsora pachyrhizi, 216 h): 86%

Compound: COC(=O)NCc1cc(-c2ncn(-c3c(F)cc(Br)cc3F)n2)ccc1C [Compound 104]
pest or weed control at 10 ppm ([1]; Puccinia recondita, 192 h): 100% | melting point: 175 to 179 °C | pest or weed control at 10 ppm (Phakopsora pachyrhizi; Phakopsora pachyrhizi, 216 h): 90%

Compound: COC(=O)NCc1cc(-c2cnn(-c3c(F)cc(C(C)C)cc3F)n2)ccc1C [Compound 108, methyl N-[[5-[2-[2,6-difluoro-4-(1-methylethyl)phenyl]-2H-1,2,3-triazol-4-yl]-2-methylphenyl]methyl]carbamate]
pest or weed control at 2 ppm ([1]; Puccinia recondita, 192 h, Rate 2 ppm): 100% | melting point: 102 to 106 °C | pest or weed control at 2 ppm (Phakopsora pachyrhizi; Phakopsora pachyrhizi, 216 h, Rate 2 ppm): 100%

Compound: COC(=O)NCc1cc(-c2cnn(-c3c(F)cccc3F)n2)ccc1C [Compound 112]
melting point: 122 to 126 °C

Compound: COC(=O)NCc1cc(-c2cnn(-c3c(F)cc(C4CC4)cc3F)n2)ccc1C [Compound 113]
pest or weed control at 10 ppm ([1]; Puccinia recondita, 192 h): 100% | melting point: 107 to 111 °C | pest or weed control at 10 ppm (Phakopsora pachyrhizi; Phakopsora pachyrhizi, 216 h): 100%

Compound: COC(=O)NCc1cc(-c2cn(-c3c(Cl)cc(OC)cc3OC)nn2)ccc1C [Compound 120]
pest or weed control at 10 ppm ([1]; Puccinia recondita, 192 h): 0% | melting point: 145 to 148 °C | pest or weed control at 10 ppm (Phakopsora pachyrhizi; Phakopsora pachyrhizi, 216 h): 0%

Compound: COC(=O)NCc1cc(-c2cn(-c3c(Br)cc(OC)cc3[N+](=O)[O-])nn2)ccc1C [Compound 129]
pest or weed control at 10 ppm ([1]; Puccinia recondita, 192 h): 0% | melting point: 158 to 162 °C | pest or weed control at 10 ppm (Phakopsora pachyrhizi; Phakopsora pachyrhizi, 216 h): 0%

Compound: COC(=O)NCc1cc(-c2ccn(-c3c(Cl)cc(C(F)(C(F)(F)F)C(F)(F)F)cc3Cl)n2)ccc1C [Compound 138]
Test B disease control rating [1]: 74% | Test D disease control rating (Phakopsora pachyrhizi): 87%

Compound: COC(=O)NCc1cc(-c2cnn(-c3c(F)cc(C(C)=O)cc3F)n2)ccc1C [Compound 140]
Test B disease control rating [1]: 41% | Test D disease control rating (Phakopsora pachyrhizi): 71%

Compound: COC(=O)NCc1cc(-c2cnn(-c3c(F)cc(C(F)(F)F)cc3F)n2)ccc1C [Compound 141]
pest or weed control at 10 ppm ([1]; Puccinia recondita, 192 h): 99% | melting point: 138 to 142 °C | pest or weed control at 10 ppm (Phakopsora pachyrhizi; Phakopsora pachyrhizi, 216 h): 100%

Compound: CCON=C(C)c1cc(F)c(-n2ncc(-c3ccc(C)c(CNC(=O)OC)c3)n2)c(F)c1 [Compound 142]
Test B disease control rating [1]: 86% | Test D disease control rating (Phakopsora pachyrhizi): 100%

Compound: COC(=O)NCc1cc(-c2cnn(-c3c(F)cc(C(C)=NOC(C)C)cc3F)n2)ccc1C [Compound 143]
Test B disease control rating [1]: 74% | Test D disease control rating (Phakopsora pachyrhizi): 100%

Compound: methyl N-[[5-[1-(2,6-difluoro-4-methoxyphenyl)-1H-pyrazol-3-yl]-2-methylphenyl]methyl]carbamate [Compound 33]
Test B disease control rating [1]: 99% | Test D disease control rating (Phakopsora pachyrhizi): 100%

Further lines, with some results ahead:

melting point: 130 to 131 °C
Compound: COC(=O)NCc1cc(-c2ccn(-c3c(F)cc(C)cc3F)n2)ccc1C [Compound 30]
pest or weed control at 10 ppm ([1]; Puccinia recondita, 192 h): 98% | pest or weed control at 10 ppm (Phakopsora pachyrhizi; Phakopsora pachyrhizi, 216 h): 100%

melting point: 136 to 140 °C
Compound: COC(=O)NCc1cc(-c2ncn(-c3c(F)cc(N)cc3F)n2)ccc1C [Compound 106]

melting point: 117 to 121 °C
Compound: COC(=O)NCc1cc(-c2cnn(-c3c(F)cc(C)cc3F)n2)ccc1C [Compound 111]
pest or weed control at 10 ppm ([1]; Puccinia recondita, 192 h): 99% | pest or weed control at 10 ppm (Phakopsora pachyrhizi; Phakopsora pachyrhizi, 216 h): 100%

melting point: 136 to 140 °C
Compound: COC(=O)NCc1cc(-c2cnn(-c3c(F)cc(Br)cc3F)n2)ccc1C [Compound 114]
pest or weed control at 10 ppm ([1]; Puccinia recondita, 192 h): 100% | pest or weed control at 10 ppm (Phakopsora pachyrhizi; Phakopsora pachyrhizi, 216 h): 100%

melting point: 154 to 158 °C
Compound: COC(=O)NCc1cc(-c2cnn(-c3c(F)cc(I)cc3F)n2)ccc1C [Compound 116]
pest or weed control at 10 ppm ([1]; Puccinia recondita, 192 h): 100% | pest or weed control at 10 ppm (Phakopsora pachyrhizi; Phakopsora pachyrhizi, 216 h): 100%

melting point: 143 to 147 °C
Compound: COC(=O)NCc1cc(-c2cn(-c3c(F)cc(C)cc3F)nn2)ccc1C [Compound 119]
pest or weed control at 10 ppm ([1]; Puccinia recondita, 192 h): 100% | pest or weed control at 10 ppm (Phakopsora pachyrhizi; Phakopsora pachyrhizi, 216 h): 0%

melting point: 159 to 163 °C
Compound: COC(=O)NCc1cc(-c2cn(-c3c(F)cc(Cl)cc3F)nn2)ccc1C [Compound 121, methyl N-[[5-[1-(4-chloro-2,6-difluorophenyl)-1H-1,2,3-triazol-4-yl]-2-methylphenyl]methyl]carbamate]
pest or weed control at 10 ppm ([1]; Puccinia recondita, 192 h): 68% | pest or weed control at 10 ppm (Phakopsora pachyrhizi; Phakopsora pachyrhizi, 216 h): 0%

melting point: 148 to 152 °C
Compound: COC(=O)NCc1cc(-c2cn(-c3c(Cl)cc(OC)cc3Cl)nn2)ccc1C [Compound 123]
pest or weed control at 10 ppm ([1]; Puccinia recondita, 192 h): 0% | pest or weed control at 10 ppm (Phakopsora pachyrhizi; Phakopsora pachyrhizi, 216 h): 0%

melting point: 110 to 114 °C
Compound: COC(=O)NCc1cc(-c2cn(-c3c(C)cc(OC)cc3C)nn2)ccc1C [Compound 124]
pest or weed control at 10 ppm ([1]; Puccinia recondita, 192 h): 0% | pest or weed control at 10 ppm (Phakopsora pachyrhizi; Phakopsora pachyrhizi, 216 h): 0%

melting point: 166 to 170 °C
Compound: COC(=O)NCc1cc(-c2cn(-c3c(F)cc(I)cc3F)nn2)ccc1C [Compound 125]
pest or weed control at 10 ppm ([1]; Puccinia recondita, 192 h): 68% | pest or weed control at 10 ppm (Phakopsora pachyrhizi; Phakopsora pachyrhizi, 216 h): 0%

melting point: 160 to 164 °C
Compound: COC(=O)NCc1cc(-c2cn(-c3c(F)cc(Br)cc3F)nn2)ccc1C [Compound 126]
pest or weed control at 10 ppm ([1]; Puccinia recondita, 192 h): 57% | pest or weed control at 10 ppm (Phakopsora pachyrhizi; Phakopsora pachyrhizi, 216 h): 0%

melting point: 167 to 171 °C
Compound: COC(=O)NCc1cc(-c2cn(-c3c(Br)cc(OC)cc3Br)nn2)ccc1C [Compound 128]
pest or weed control at 10 ppm ([1]; Puccinia recondita, 192 h): 0% | pest or weed control at 10 ppm (Phakopsora pachyrhizi; Phakopsora pachyrhizi, 216 h): 0%

melting point: 146 to 150 °C
Compound: COC(=O)NCc1cc(-c2cn(-c3c(F)cc(OC)cc3F)nn2)ccc1C [Compound 130]
pest or weed control at 10 ppm ([1]; Puccinia recondita, 192 h): 68% | pest or weed control at 10 ppm (Phakopsora pachyrhizi; Phakopsora pachyrhizi, 216 h): 0%

melting point: 194 to 198 °C
Compound: COC(=O)NCc1cc(-c2cn(-c3c(F)cc(N)cc3F)nn2)ccc1C [Compound 131, methyl N-[[5-[1-(4-amino-2,6-difluorophenyl)-1H-1,2,3-triazol-4-yl]-2-methylphenyl]methyl]carbamate]
